In PMC9835529, “Investigation of Novel Quinoline–Thiazole Derivatives as Antimicrobial Agents: In Vitro and In Silico Approaches” (ACS Omega, 2022):
Converted amounts (≈) assume the structure as drawn. Read-outs that look alike come from different tables or passages of the source.

Experiments:
E. coli ATCC 25922 = assay: Antibacterial broth microdilution (CLSI M07-A9), MIC90; assay type: cell-based; conditions: Escherichia coli, ATCC25922
Source text: (§1) The broth microdilution procedure specified in the M07-A9 document of the Clinical and Laboratory Standards Institute (CLSI) was used for antibacterial study,[55] and the EDef 7.1 document published by EUCAST was used for the antifungal study.[56] For both activity studies, the detailed procedures were explained in previous studies.[57],[58]

[1] = test system: Escherichia coli ATCC 35218; assay: as above; assay type: cell-based; conditions: Escherichia coli, ATCC35218; E. coli ATCC 35218
Source text: as §1

[2] = test system: Klebsiella pneumoniae NCTC 9633; assay: as above; assay type: cell-based; conditions: NCTC9633, K. pneumoniae NCTC 9633
Source text: as §1

[3] = test system: Salmonella typhimurium ATCC 13311; assay: as above; assay type: cell-based; conditions: Salmonella enterica; S. typhimurium ATCC 13311
Source text: as §1

[4] = test system: Staphylococcus aureus ATCC 6538; assay: as above; assay type: cell-based; conditions: S. aureus ATCC 6538
Source text: as §1

[5] = test system: methicillin-resistant S. aureus (MRSA) (clinical isolate); assay: as above; assay type: cell-based; conditions: Staphylococcus aureus
Source text: as §1

[6] = test system: Candida albicans ATCC 24433; assay: Anticandidal broth microdilution (EUCAST EDef 7.1), MIC90; assay type: cell-based
Source text: (§2) E. coli (ATCC 35218), E. coli (ATCC 25922), S. aureus (ATCC 6538), methicillin-resistant S. aureus (MRSA) (clinical isolate), S. typhimurium (ATCC 13311), and K. pneumoniae (NCTC 9633) cells for antibacterial effect, and C. albicans (ATCC 24433), C. glabrata (ATCC 90030), C. krusei (ATCC 6258), and C. parapsilosis (ATCC 22019) for the antifungal effect of the final compounds were used to determine the MIC90 values. The broth microdilution procedure specified in the M07-A9 document of the Clinical and Laboratory Standards Institute (CLSI) was used for antibacterial study,[55] and the EDef 7.1 document published by EUCAST was used for the antifungal study.[56] For both activity studies, the detailed procedures were explained in previous studies.[57],[58]

Candida krusei ATCC 6258 = assay: as above; assay type: cell-based
Source text: as §2

[7] = test system: Candida parapsilosis ATCC 22019; assay: as above; assay type: cell-based
Source text: as §2

C. glabrata ATCC 90030 = assay: as above; assay type: cell-based, Candida glabrata; conditions: Nakaseomyces glabratus, ATCC90030, C. glabrata ATCC 90030
Source text: as §2

NIH/3T3 cells = assay: Cytotoxicity on NIH/3T3 healthy cell line; assay type: cell-based; conditions: Mus musculus, NIH3T3, 24 h incubation
Method: NIH/3T3 cells were incubated in Dulbecco’s modified Eagle’s medium (DMEM) (Sigma-Aldrich, St. Louis, MO), added with fetal calf serum, penicillin (100 IU/mL), streptomycin ([…]), and 7.5% NaHCO3 at 37 °C in a humidified atmosphere of 95% air and 5% CO2. NIH/3T3 cells were seeded into the 96-well plates at a density of 1 × 10^4 cells. After 24 h of incubating period, the culture media were removed, and test compounds were added. After 24 h of incubation period, colorimetric measurements were performed by a microplate reader (Biotek) at 540 nm. Inhibition % at all concentrations was determined using the formula below, and the IC50 values were calculated from a dose–response curve obtained by plotting the percentage inhibition versus the log concentration with the use of Microsoft Excel 2013.

[8] = biological target: T1, Lanosterol 14α-demethylase (LMD, CYP51A1) (Candida glabrata, UniProt P50859); assay: LDM (CYP51A1) inhibition by LC-MS-MS quantification of ergosterol level; assay type: cell-based; conditions: for inhibition at 0.06 µg/mL / inhibition at 0.24 µg/mL / inhibition at 0.98 µg/mL: read-out: CYP51A1 Inhibition%
T1 construct: tested against Candida strains via the determination of ergosterol production; endogenous in cells; host or cells: C. glabrata (ATCC 90030)
T1 sequence (P50859 whole entry): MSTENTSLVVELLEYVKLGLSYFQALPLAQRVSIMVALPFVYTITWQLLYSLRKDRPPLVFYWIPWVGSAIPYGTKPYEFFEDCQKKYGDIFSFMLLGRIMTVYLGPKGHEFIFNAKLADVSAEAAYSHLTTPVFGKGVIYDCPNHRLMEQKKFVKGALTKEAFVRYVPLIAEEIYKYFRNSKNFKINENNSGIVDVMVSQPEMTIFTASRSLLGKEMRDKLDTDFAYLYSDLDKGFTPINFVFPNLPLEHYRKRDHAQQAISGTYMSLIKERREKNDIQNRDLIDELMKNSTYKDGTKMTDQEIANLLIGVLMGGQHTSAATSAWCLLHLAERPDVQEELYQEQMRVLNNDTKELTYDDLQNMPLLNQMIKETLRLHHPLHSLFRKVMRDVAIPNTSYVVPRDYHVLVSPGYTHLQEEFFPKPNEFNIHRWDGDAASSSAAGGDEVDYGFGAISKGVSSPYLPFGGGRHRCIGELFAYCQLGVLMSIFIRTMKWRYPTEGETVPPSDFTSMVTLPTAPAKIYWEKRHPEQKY
Method: (§3) The activity of the target compounds was tested against Candida strains via the determination of ergosterol production.
(§4) Ergosterol level was determined using the extract of total sterols from C. albicans (and its other species) following the method described by Breivik and Owades.[63] Quantification of the ergosterol level in this extract was carried out by the recently described method.[58],[64]−[66] According to these described studies, in the current work, compounds 4b, 4e, 4f, and 4h–m were undertaken to investigate their action mechanism. Thus, the LC-MS-MS-based method that quantifies the ergosterol level was applied. […]. Ergosterol quantity in negative control samples was regarded as 100%. All concentrations were analyzed in quadruplicate, and the results were expressed as mean ± standard deviation (SD).

[9] = test system: Lanosterol 14α-demethylase (LMD, CYP51A1); assay: as above; assay type: cell-based
Method: as §3, §4

[10] = Staphylococcus aureus, ATCC6538, read-out: MIC90
[11] = Candida albicans, ATCC24433, C. albicans ATCC 24433, read-out: MIC90
[12] = Pichia kudriavzevii, ATCC6258, C. krusei ATCC 6258, read-out: MIC90
[13] = Lodderomyces parapsilosis, ATCC22019, C. parapsilosis ATCC 22019, read-out: MIC90

| SMILES | MIC90 (E. coli ATCC 25922) [µg/mL] | MIC90 [1] [µg/mL] | MIC90 [2] [µg/mL] | MIC90 [3] [µg/mL] | MIC90 [4, 10] [µg/mL] | MIC90 [5] [µg/mL] | MIC90 [6, 11] [µg/mL] | MIC90 (Candida krusei ATCC 6258; [12]) [µg/mL] | MIC90 [7, 13] [µg/mL] | MIC90 (C. glabrata ATCC 90030) [µg/mL] | IC50 (NIH/3T3 cells) [µM] | melting point [°C] | inhibition at 0.06 µg/mL ([8]; C. glabrata, 0.06 μg/mL) [%] | inhibition at 0.24 µg/mL ([8]; C. glabrata, 0.24 μg/mL) [%] | inhibition at 0.98 µg/mL ([8]; C. glabrata, 0.98 μg/mL) [%] | other results |
| --- | --- | --- | --- | --- | --- | --- | --- | --- | --- | --- | --- | --- | --- | --- | --- | --- |
| COc1ccc2nc(Cl)c(/C=N/Nc3nc(-c4ccc(F)cc4)cs3)cc2c1 [4a] | > 1000 | > 1000 | > 1000 | > 1000 | > 1000 | > 1000 | > 1000 | 31.2 (≈ 75.7 µM) | 15.6 (≈ 37.9 µM) | 1.95 (≈ 4.72 µM) | 39.8 ± 1.45 | 193 to 195 |  |  |  |  |
| COc1ccc2nc(Cl)c(C=NNc3nc(-c4ccc(Cl)cc4)cs3)cc2c1 [4b] | > 1000 | > 1000 | > 1000 | > 1000 | > 1000 | > 1000 | > 1000 | 31.2 (≈ 72.8 µM) | 31.2 (≈ 72.8 µM) | < 0.06 | 14.7 ± 0.34 | 195 to 197 | 36.2 ± 0.965 | 51.8 ± 1.61 | 60.2 ± 2.1 | effect on ergosterol production / LMD enzyme inhibition (in words) ([8]; C. glabrata): showed their anticandidal activity via LMD enzyme inhibition |
| COc1ccc2nc(Cl)c(/C=N/Nc3nc(-c4ccc([N+](=O)[O-])cc4)cs3)cc2c1 [4c] | > 1000 | > 1000 | > 1000 | > 1000 | > 1000 | > 1000 | > 1000 | 31.2 (≈ 71 µM) | 31.2 (≈ 71 µM) | 62.5 (≈ 142 µM) | 31.6 ± 0.87 | 245 to 253 |  |  |  |  |
| COc1ccc2nc(Cl)c(/C=N/Nc3nc(-c4ccccc4)cs3)cc2c1 [4d] | > 1000 | > 1000 | > 1000 | > 1000 | > 1000 | > 1000 | 1.95 (≈ 4.94 µM) | 1.95 (≈ 4.94 µM) | 15.6 (≈ 39.6 µM) | 1.95 (≈ 4.94 µM) | 1.26 ± 0.033 | 220 to 222 |  |  |  |  |
| COc1ccc2nc(Cl)c(/C=N/Nc3nc(-c4ccc(C#N)cc4)cs3)cc2c1 [4e] | > 1000 | > 1000 | > 1000 | > 1000 | > 1000 | > 1000 | 3.91 (≈ 9.31 µM) | 62.5 (≈ 149 µM) | 3.91 (≈ 9.31 µM) | < 0.06 | > 1000 | 240 to 242 | 16.7 ± 0.774 | 18.3 ± 0.785 | 21.7 ± 0.955 | effect on ergosterol production / LMD enzyme inhibition (in words) ([8]; C. glabrata): did not decrease the ergosterol production compared to the standard drugs |
| COc1ccc2nc(Cl)c(C=NNc3nc(-c4ccc(C)cc4)cs3)cc2c1 [4f] | > 1000 | > 1000 | > 1000 | > 1000 | > 1000 | > 1000 | > 1000 | 3.91 (≈ 9.56 µM) | 3.91 (≈ 9.56 µM) | < 0.06 | > 1000 | 194 to 196 | 42.1 ± 1.56 | 53.8 ± 2.39 | 65.1 ± 1.68 | effect on ergosterol production / LMD enzyme inhibition (in words) ([8]; C. glabrata): showed their anticandidal activity via LMD enzyme inhibition |
| COc1ccc2nc(Cl)c(C=NNc3nc(-c4cccc(Cl)c4)cs3)cc2c1 [4h] | > 1000 | > 1000 | > 1000 | > 1000 | > 1000 | > 1000 | > 1000 | ≤ 0.06 | 125 (≈ 291 µM) | 31.2 (≈ 72.8 µM) | 14.5 ± 0.57 | 200 to 202 |  |  |  | effect on ergosterol production / LMD enzyme inhibition (in words) ([9]; C. krusei): showed their anticandidal activity via LMD enzyme inhibition; CYP51A1 Inhibition% ([9]; C. krusei, 0.06 μg/mL): 45.530 ± 0.961%; CYP51A1 Inhibition% ([9]; C. krusei, 0.24 μg/mL): 60.184 ± 1.985%; CYP51A1 Inhibition% ([9]; C. krusei, 0.98 μg/mL): 67.651 ± 1.736% |
| COc1ccc2nc(Cl)c(/C=N/Nc3nc(-c4ccc5ccccc5c4)cs3)cc2c1 [4n] | > 1000 | > 1000 | > 1000 | > 1000 | 62.5 (≈ 140 µM) | > 1000 | 3.91 (≈ 8.79 µM) | 1.95 (≈ 4.38 µM) | 1.95 (≈ 4.38 µM) | 1.95 (≈ 4.38 µM) | > 1000 | 199 to 202 |  |  |  |  |
| O=C(N[C@H](CO)[C@H](O)c1ccc([N+](=O)[O-])cc1)C(Cl)Cl [chloramphenicol, reference compound] | 15.6 (≈ 48.4 µM) | 31.2 (≈ 96.7 µM) | 31.2 (≈ 96.7 µM) | 31.2 (≈ 96.7 µM) | ≤ 1.95 | 31.2 (≈ 96.7 µM) |  |  |  |  |  |  |  |  |  | MIC90 ([4]; listed as RF-1): ≤1.95 µg/mL |
| OC(Cn1cncn1)(Cn1cncn1)c1ccc(F)cc1F [fluconazole, reference compound] |  |  |  |  |  |  |  |  |  |  |  |  |  |  |  | inhibition at 0.06 µg/mL [8]: 46.3 ± 0.936%; inhibition at 0.24 µg/mL [8]: 63.7 ± 2.19%; inhibition at 0.98 µg/mL [8]: 70.1 ± 2.05%; CYP51A1 Inhibition% ([9]; C. krusei, 0.06 μg/mL): 43.378 ± 0.937%; CYP51A1 Inhibition% ([9]; C. krusei, 0.24 μg/mL): 60.132 ± 2.042%; CYP51A1 Inhibition% ([9]; C. krusei, 0.98 μg/mL): 72.523 ± 1.961%; CYP51A1 Inhibition% ([9]; C. parapsilosis, 0.06 μg/mL): 49.579 ± 1.733%; CYP51A1 Inhibition% ([9]; C. parapsilosis, 0.24 μg/mL): 61.533 ± 1.282%; CYP51A1 Inhibition% ([9]; C. parapsilosis, 0.98 μg/mL): 73.204 ± 2.031% |
| CC(=O)N1CCN(c2ccc(OCC3COC(Cn4ccnc4)(c4ccc(Cl)cc4Cl)O3)cc2)CC1 (stereo not drawn) [ketoconazole, reference compound] |  |  |  |  |  |  | < 0.06 | < 0.06 | < 0.06 | 0.24 (≈ 0.452 µM) |  |  | 50.4 ± 1.16 | 61.9 ± 1.83 | 72.8 ± 2.87 | MIC90 ([6]; C. albicans ATCC 24433, listed as Rf): ≤0.06 µg/mL; MIC90 (Candida krusei ATCC 6258; C. krusei ATCC 6258, listed as Rf): ≤0.06 µg/mL; MIC90 ([7]; C. parapsilosis ATCC 22019, listed as Rf): ≤0.06 µg/mL; CYP51A1 Inhibition% ([9]; C. krusei, 0.06 μg/mL): 52.865 ± 1.662%; CYP51A1 Inhibition% ([9]; C. krusei, 0.24 μg/mL): 60.630 ± 2.875%; CYP51A1 Inhibition% ([9]; C. krusei, 0.98 μg/mL): 75.647 ± 2.749%; CYP51A1 Inhibition% ([9]; C. parapsilosis, 0.06 μg/mL): 55.348 ± 1.091%; CYP51A1 Inhibition% ([9]; C. parapsilosis, 0.24 μg/mL): 63.419 ± 2.074%; CYP51A1 Inhibition% ([9]; C. parapsilosis, 0.98 μg/mL): 71.864 ± 2.229% |
